Common to all, as to type: biochemical
Test [1] deals with adenosine A2B receptor (Homo sapiens (Human), UniProt P29275). In words: Adenosine receptor activity assay (Table 1), A2B activity. Conditions: for Ratio: A2A activity to the A2B activity, A2A/A2B; for IC50: cAMP, read-out: Ave A2B cAMP IC50.
Test [2] deals with adenosine A2A receptor (Homo sapiens (Human), UniProt P29274). Put plainly: Adenosine receptor activity assay (Table 1), A2A activity. Conditions: cAMP; read-out: Ave A2A cAMP IC50.
Chain of adenosine A2A receptor (P29274 whole entry): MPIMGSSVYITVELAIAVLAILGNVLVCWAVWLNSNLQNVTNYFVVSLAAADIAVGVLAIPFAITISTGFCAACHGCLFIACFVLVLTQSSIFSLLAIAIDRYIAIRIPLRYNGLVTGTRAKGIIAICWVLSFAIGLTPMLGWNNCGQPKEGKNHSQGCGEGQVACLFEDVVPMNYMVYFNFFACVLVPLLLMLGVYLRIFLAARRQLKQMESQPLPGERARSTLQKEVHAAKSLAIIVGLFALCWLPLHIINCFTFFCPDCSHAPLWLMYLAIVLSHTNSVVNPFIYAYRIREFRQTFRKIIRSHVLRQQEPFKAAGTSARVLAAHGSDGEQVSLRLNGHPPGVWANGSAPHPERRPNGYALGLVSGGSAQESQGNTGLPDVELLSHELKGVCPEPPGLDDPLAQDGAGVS
In test [3] the target is adenosine A1 receptor (Homo sapiens (Human), UniProt P30542). In words: Adenosine receptor activity assay (Table 1), A1 cAMP.
Chain of adenosine A1 receptor (P30542 whole entry): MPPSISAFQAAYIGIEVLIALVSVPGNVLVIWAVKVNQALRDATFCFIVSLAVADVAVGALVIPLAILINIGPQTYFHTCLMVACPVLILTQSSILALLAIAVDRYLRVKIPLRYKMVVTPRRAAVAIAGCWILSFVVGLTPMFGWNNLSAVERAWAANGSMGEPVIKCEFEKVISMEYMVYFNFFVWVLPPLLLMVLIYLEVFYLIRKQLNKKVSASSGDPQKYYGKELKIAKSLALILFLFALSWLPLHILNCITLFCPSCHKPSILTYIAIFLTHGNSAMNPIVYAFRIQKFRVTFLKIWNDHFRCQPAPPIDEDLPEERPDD
Test [4] addresses adenosine A3 receptor (Homo sapiens (Human), UniProt P0DMS8). Put plainly: Adenosine receptor activity assay (Table 1), A3 cAMP.

The text below walks through data of US11254686B1 (Corvus Pharmaceuticals, Inc., priority 2017, dated 2022).

The structures appear in SMILES notation. “And” between values parts separate entries of the source, which are not always exact repeats. Equal values may be shown once. Some results are limits rather than exact numbers.

A word on the IC50: it is the point on the concentration scale where inhibition reaches its midpoint.

Chain of adenosine A3 receptor (P0DMS8 whole entry): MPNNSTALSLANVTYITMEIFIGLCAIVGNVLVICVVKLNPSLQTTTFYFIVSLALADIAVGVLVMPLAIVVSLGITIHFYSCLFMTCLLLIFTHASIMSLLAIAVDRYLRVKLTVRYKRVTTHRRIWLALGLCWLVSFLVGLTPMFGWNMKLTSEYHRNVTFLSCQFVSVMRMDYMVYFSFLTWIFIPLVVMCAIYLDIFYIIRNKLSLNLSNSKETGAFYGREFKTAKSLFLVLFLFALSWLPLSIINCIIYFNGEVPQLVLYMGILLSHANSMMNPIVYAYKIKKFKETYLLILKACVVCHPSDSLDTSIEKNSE
Chain of adenosine A2B receptor (P29275 whole entry): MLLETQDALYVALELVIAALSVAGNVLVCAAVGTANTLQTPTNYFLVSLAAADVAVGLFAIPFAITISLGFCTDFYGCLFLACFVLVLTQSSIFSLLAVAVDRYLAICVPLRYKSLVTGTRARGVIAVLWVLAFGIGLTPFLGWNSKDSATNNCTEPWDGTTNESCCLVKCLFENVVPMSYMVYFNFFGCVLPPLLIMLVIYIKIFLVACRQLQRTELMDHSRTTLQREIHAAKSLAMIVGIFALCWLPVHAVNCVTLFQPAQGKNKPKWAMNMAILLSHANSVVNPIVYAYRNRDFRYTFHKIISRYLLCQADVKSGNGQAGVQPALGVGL

For the compound `C[C@H](Nc1nc(C(=O)N2CC(NC(=O)c3cccnc3)C2)c2sccc2n1)c1cncc(F)c1` [Example Z620, (S)—N-(1-(2-((1-(5-Fluoropyridin-3-yl)ethyl)amino)thieno[3,2d]pyrimidine-4-carbonyl)azetidin-3-yl)nicotinamide], in test [1], the Ratio came out at 3.94. The IC50 was 10 to 50 nM in test [1], 50 to 100 nM in test [2], above 500 nM in test [3] and above 500 nM in test [4].

As for `C[C@H](Nc1nc(C(=O)N2CC(C)(NC(=O)C3CC3)C2)c2sccc2n1)c1cncc(F)c1` [Example Z621, (S)—N-(1-(2-((1-(5-Fluoropyridin-3-yl)ethyl)amino)thieno[3,2-d]pyrimidine-4-carbonyl)-3-methylazetidin-3-yl)cyclopropanecarboxamide], the Ratio in test [1] stood at 1.86. The IC50 was 10 to 50 nM in test [1], 50 to 100 nM in test [2], above 500 nM in test [3] and below 10 nM in test [4].

On to `C[C@H](Nc1nc(C(=O)N2CC(NC(=O)C3CCOCC3)C2)c2sccc2n1)c1cncc(F)c1` [Example Z622, (S)—N-(1-(2-((1-(5-Fluoropyridin-3-yl)ethyl)amino)thieno[3,2-d]pyrimidine-4-carbonyl)azetidin-3-yl)tetrahydro-2H-pyran-4-carboxamide], for which the Ratio in test [1] is 1.02. Also, the IC50 in test [1] was 10 to 50 nM; in test [2], 10 to 50 nM; in test [3], above 500 nM; in test [4], above 500 nM.

For `C[C@H](Nc1nc(C(=O)N2CC(NC(=O)NC3CCC3)C2)c2sccc2n1)c1cncc(F)c1` [Example Z623, (S)-1-Cyclobutyl-3-(1-(2-((1-(5-fluoropyridin-3-yl)ethyl)amino)thieno[3,2-d]pyrimidine-4-carbonyl)azetidin-3-yl)urea], the Ratio in test [1] stood at 0.95. Further, the IC50 in test [1] was below 10 nM; in test [2], below 10 nM; in test [3], above 500 nM; in test [4], 100 to 500 nM.

With `Cc1csc2c(C(=O)N3CC(NC(=O)c4cccc(Cl)c4)C3)nc(N[C@@H](C)c3cncc(F)c3)nc12` [Example Z625, (S)-3-Chloro-N-(1-(2-((1-(5-fluoropyridin-3-yl)ethyl)amino)-7-methylthieno[3,2-d]pyrimidine-4-carbonyl)azetidin-3-yl)benzamide], in test [1], the Ratio worked out at 0.68. Moreover, the IC50 in test [1] was 10 to 50 nM; in test [2], 10 to 50 nM; in test [3] it was above 500 nM; in test [4], above 500 nM.

As to `Cc1cccc(C(=O)NC2CN(C(=O)c3nc(N[C@@H](C)c4cncc(F)c4)nc4ccsc34)C2)c1` [Example Z626, (S)—N-(1-(2-((1-(5-Fluoropyridin-3-yl)ethyl)amino)thieno[3,2-d]pyrimidine-4-carbonyl)azetidin-3-yl)-3-methylbenzamide], the Ratio in test [1] amounted to 0.85. Besides, the IC50 in test [1] is 10 to 50 nM; in test [2] it was below 10 nM; in test [3] it was above 500 nM; in test [4], 100 to 500 nM.

With `C[C@H](Nc1nc(C(=O)N2CC(NC(=O)C3(C)CCC3)C2)c2sccc2n1)c1cncc(F)c1` [Example Z627, (S)—N-(1-(2-((1-(5-Fluoropyridin-3-yl)ethyl)amino)thieno[3,2-d]pyrimidine-4-carbonyl)azetidin-3-yl)-1-methylcyclobutane-1-carboxamide], in test [1], the Ratio was 0.15 and 0.25. In addition, the IC50 in test [1] was 10 to 50 nM; in test [2], below 10 nM; in test [3], above 500 nM; in test [4], 100 to 500 nM.

Consider `C[C@H](Nc1nc(C(=O)N2CC[C@@H](C(=O)NOC3CCCC3)C2)c2sccc2n1)c1cncc(F)c1` [Example Z628, (R)—N-(Cyclopentyloxy)-1-(2-(((S)-1-(5-fluoropyridin-3-yl)ethyl)amino)thieno[3,2-d]pyrimidine-4-carbonyl)pyrrolidine-3-carboxamide], for which the Ratio in test [1] is recorded as 1.25. Moreover, the IC50 was below 10 nM in test [1], below 10 nM in test [2], above 500 nM in test [3] and 100 to 500 nM in test [4].

On to `C[C@H](Nc1nc(C(=O)N2CC(NC(=O)c3ccc(C(F)(F)F)o3)C2)c2sccc2n1)c1cncc(F)c1` [Example Z629, (S)—N-(1-(2-((1-(5-Fluoropyridin-3-yl)ethyl)amino)thieno[3,2-d]pyrimidine-4-carbonyl)azetidin-3-yl)-5-(trifluoromethyl)furan-2-carboxamide], for which the Ratio in test [1] was found to be 2.40. The 50% inhibitory concentration (IC50) is 10 to 50 nM in test [1], 10 to 50 nM in test [2], above 500 nM in test [3] and above 500 nM in test [4].

With `CCC(CC)NC(=O)NC1CN(C(=O)c2nc(N[C@@H](C)c3cncc(F)c3)nc3ccsc23)C1` [Example Z630, (S)-1-(1-(2-((1-(5-Fluoropyridin-3-yl)ethyl)amino)thieno[3,2-d]pyrimidine-4-carbonyl)azetidin-3-yl)-3-(pentan-3-yl)urea], the Ratio in test [1] was determined as 0.33. In addition, the IC50 in test [1] was 10 to 50 nM; in test [2] it was below 10 nM; in test [3], above 500 nM; in test [4], 10 to 50 nM.

`C[C@H](Nc1nc(C(=O)N2CC(NC(=O)C34CC5CC(CC(C5)C3)C4)C2)c2sccc2n1)c1cncc(F)c1` [Example Z631, (3S,5S,7S)—N-(1-(2-(((S)-1-(5-Fluoropyridin-3-yl)ethyl)amino)thieno[3,2-d]pyrimidine-4-carbonyl)azetidin-3-yl)adamantane-1-carboxamide]: the Ratio in test [1] was 0.09. Further, the IC50 in test [1] is 10 to 50 nM; in test [2], below 10 nM; in test [3], above 500 nM; in test [4], 10 to 50 nM.

With `Cc1cc2nc(N[C@@H](C)c3cncc(F)c3)nc(C(=O)N3CC(NC(=O)c4ccc(C(F)(F)F)o4)C3)c2s1` [Example Z632, (S)—N-(1-(2-((1-(5-Fluoropyridin-3-yl)ethyl)amino)-6-methylthieno[3,2-d]pyrimidine-4-carbonyl)azetidin-3-yl)-5-(trifluoromethyl)furan-2-carboxamide], the Ratio in test [1] amounted to 1.12. For the same compound, the IC50 in test [1] is below 10 nM; in test [2], below 10 nM; in test [3], above 500 nM; in test [4] it was 100 to 500 nM.

Take `C[C@H](Nc1nc(C(=O)N2CC(NC(=O)c3cccc(C(F)(F)F)c3)C2)c2sccc2n1)c1cncc(F)c1` [Example Z633, (S)—N-(1-(2-((1-(5-Fluoropyridin-3-yl)ethyl)amino)thieno[3,2-d]pyrimidine-4-carbonyl)azetidin-3-yl)-3-(trifluoromethyl)benzamide]: the Ratio in test [1] amounted to 1.62. Also, the IC50 was below 10 nM in test [1], 10 to 50 nM in test [2], above 500 nM in test [3] and 100 to 500 nM in test [4].

As for `C[C@H](Nc1nc(C(=O)N2CC(NC(=O)Nc3ccccc3)C2)c2sccc2n1)c1cncc(F)c1` [Example Z634, (S)-1-(1-(2-((1-(5-Fluoropyridin-3-yl)ethyl)amino)thieno[3,2-d]pyrimidine-4-carbonyl)azetidin-3-yl)-3-phenylurea], the Ratio in test [1] was 2.22. Also, the concentration for half-maximal inhibition (IC50) in test [1] is below 10 nM; in test [2] it was 10 to 50 nM; in test [3], above 500 nM; in test [4], 100 to 500 nM.

For `COc1cccc(C(=O)NC2CN(C(=O)c3nc(N[C@@H](C)c4cncc(F)c4)nc4ccsc34)C2)c1` [Example Z635, (S)—N-(1-(2-((1-(5-Fluoropyridin-3-yl)ethyl)amino)thieno[3,2-d]pyrimidine-4-carbonyl)azetidin-3-yl)-3-methoxybenzamide], the Ratio in test [1] came out at 2.06. Moreover, the 50% inhibitory concentration (IC50) is 10 to 50 nM in test [1], 10 to 50 nM in test [2], above 500 nM in test [3] and 100 to 500 nM in test [4].

For `C[C@H](Nc1nc(C(=O)N2CC(NC(=O)C3(C#N)CC3)C2)c2sccc2n1)c1cncc(F)c1` [Example Z636, (S)-1-Cyano-N-(1-(2-((1-(5-fluoropyridin-3-yl)ethyl)amino)thieno[3,2-d]pyrimidine-4-carbonyl)azetidin-3-yl)cyclopropane-1-carboxamide], the Ratio in test [1] is listed as 3.72. In addition, the IC50 in test [1] is 10 to 50 nM; in test [2], 50 to 100 nM; in test [3] it was above 500 nM; in test [4], above 500 nM.

With `C[C@H](Nc1nc(C(=O)N2CC(NC(=O)C34CCC(CC3)CC4)C2)c2sccc2n1)c1cncc(F)c1` [Example Z637, (S)—N-(1-(2-((1-(5-Fluoropyridin-3-yl)ethyl)amino)thieno[3,2-d]pyrimidine-4-carbonyl)azetidin-3-yl)bicyclo[2.2.2]octane-1-carboxamide], in test [1], the Ratio was 0.13. Also, the IC50 was 10 to 50 nM in test [1], below 10 nM in test [2], above 500 nM in test [3] and 10 to 50 nM in test [4].

`C[C@H](Nc1nc(C(=O)N2CC(NC(=O)C3CC(C)(C)C3)C2)c2sccc2n1)c1cncc(F)c1` [Example Z638, (S)—N-(1-(2-((1-(5-Fluoropyridin-3-yl)ethyl)amino)thieno[3,2-d]pyrimidine-4-carbonyl)azetidin-3-yl)-3,3-dimethylcyclobutane-1-carboxamide]: the Ratio in test [1] is given as 0.52. Moreover, the IC50 is 10 to 50 nM in test [1], below 10 nM in test [2], above 500 nM in test [3] and 50 to 100 nM in test [4].

Consider `C[C@H](Nc1nc(C(=O)N2CC(NC(=O)[C@H]3CC[C@H](C)CC3)C2)c2sccc2n1)c1cncc(F)c1` [Example Z639, Trans-N-(1-(2-(((S)-1-(5-fluoropyridin-3-yl)ethyl)amino)thieno[3,2-d]pyrimidine-4-carbonyl)azetidin-3-yl)-4-methylcyclohexane-1-carboxamide], for which the Ratio in test [1] is listed as 0.98. Besides, the IC50 in test [1] is 10 to 50 nM; in test [2], 10 to 50 nM; in test [3] it was above 500 nM; in test [4], 100 to 500 nM.
